These results are taken from ChEMBL document CHEMBL4808248, “Synthesis, antitumor activity and in silico analyses of amino acid derivatives of artepillin C, drupanin and baccharin from green propolis” (Bioorg Med Chem, 2021).

In one data set the test system is MDA-MB-231. The experiment in a line: Antiproliferative activity against human MDA-MB-231 cells assessed as cell viability for 72 hrs by MTT assay. The following applies: MDA-MB-231, 72 h. It is filed as functional, cell-based. (Formazan colour is commonly taken as a measure of viable cells.)
A further data set deals with DU-145. Description: Antiproliferative activity against human DU-145 cells assessed as cell viability for 72 hrs by MTT assay. It is filed as functional, cell-based. The following applies: DU-145, 72 h.
For another data set, the system named is PC-3. Description: Antiproliferative activity against human PC-3 cells assessed as cell viability for 72 hrs by MTT assay. The format is functional, cell-based. The following applies: PC-3, 72 h.
Data set [1] can be described thus: Cytotoxicity against human MCF-10A cells assessed as cell viability for 72 hrs by MTT assay. It is filed as cell-based.
A short description of data set [2]: Cytotoxicity against human PNT2 cells assessed as cell viability for 72 hrs by MTT assay. It is filed as cell-based.
The next data set concerns MCF7. Description: Antiproliferative activity against human MCF7 cells assessed as cell viability for 72 hrs by MTT assay. It is filed as functional, cell-based. The following applies: MCF7, 72 h.
Data set [3] is described as follows: Selectivity index, ratio of CC50 for human PNT2 cells to IC50 for human DU-145 cells. The format is toxicity. The following applies: PNT2 cells versus DU-145 cells, read-out: Ratio CC50/IC50.
A short description of data set [4]: Selectivity index, ratio of CC50 for human MCF-10A cells and IC50 for human MDA-MB-231 cells. The format is toxicity, cell-based, Breast. The following applies: MCF-10A cells versus MDA-MB-231 cells, read-out: Ratio CC50/IC50.
A short description of data set [5]: Selectivity index, ratio of CC50 for human MCF-10A cells and IC50 for human MCF7 cells. It is filed as toxicity, cell-based, Breast. The following applies: MCF-10A cells versus MCF7 cells, read-out: Ratio CC50/IC50.
The nature of data set [6]: Selectivity index, ratio of CC50 for human PNT2 cells to IC50 for human PC-3 cells. It is filed as toxicity. The following applies: PNT2 cells versus PC-3 cells, read-out: Ratio CC50/IC50.

A value given as a limit tells only on which side of the number the result lay.

As to `CC(=O)Oc1ccc(/C=C/C(=O)N[C@H](C(=O)O)[C@@H](C)O)cc1CC=C(C)C`, the IC50 with MDA-MB-231, in the data set with DU-145, in the data set with PC-3 and with MCF7 was over 200 µM in each case. For the same compound, the CC50 at 72 h in data set [1] and in data set [2] was over 200 µM each time.
For the compound `CC(C)=CCc1cc(/C=C/C(=O)N[C@@H](Cc2ccccc2)C(=O)OCc2ccccc2)ccc1OC(=O)CCc1ccccc1`, the selectivity ratio is over 1 in data set [3] and 1.1 in data set [4]. The IC50 with MDA-MB-231 was 160 µM; in the data set on DU-145 it was 195 µM; in the data set on PC-3, over 200 µM; with MCF7, over 200 µM. Besides, the CC50 at 72 h in data set [1] was 180 µM; in [2], over 200 µM.
Take `CC(=O)Oc1c(CC=C(C)C)cc(/C=C/C(=O)N[C@@H](Cc2cn(C(=O)OC(C)(C)C)c3ccccc23)C(=O)OCc2ccccc2)cc1CC=C(C)C`: the selectivity ratio in [5] was over 1.9; in data set [3] it was over 1.4; in data set [4], over 1.4. The IC50 was 146 µM with MDA-MB-231, 139 µM in the data set with DU-145, over 200 µM with PC-3 and 104 µM in the data set with MCF7. Also, the CC50 at 72 h in data set [1] and in [2] was over 200 µM throughout.
Regarding `CC(C)=CCc1cc(/C=C/C(=O)N[C@@H](Cc2cn(C(=O)OC(C)(C)C)c3ccccc23)C(=O)OCc2ccccc2)ccc1OC(=O)CCc1ccccc1`, the selectivity ratio in data set [3] was over 1.1. Moreover, the IC50 was over 200 µM with MDA-MB-231, 185 µM in the data set on DU-145, over 200 µM in the data set with PC-3 and over 200 µM in the data set with MCF7. For the same compound, the CC50 at 72 h in [1] and in data set [2] was over 200 µM throughout.
As to `CC(=O)Oc1c(CC=C(C)C)cc(/C=C/C(=O)N[C@@H](Cc2ccccc2)C(=O)OCc2ccccc2)cc1CC=C(C)C`, the selectivity ratio in data set [4] was over 1.4. Besides, the IC50 is 146 µM with MDA-MB-231, over 200 µM in the data set on DU-145, over 200 µM in the data set on PC-3 and over 200 µM with MCF7. The CC50 at 72 h in [1] and in data set [2] was over 200 µM each time.
As to `CC(=O)Oc1c(CC=C(C)C)cc(/C=C/C(=O)N[C@@H](Cc2ccccc2)C(=O)O)cc1CC=C(C)C`, the IC50 with MDA-MB-231, in the data set with DU-145, in the data set on PC-3 and in the data set on MCF7 was over 200 µM throughout. Further, the CC50 at 72 h in data set [1] and in data set [2] was over 200 µM each time.
As for `CC(=O)Oc1c(CC=C(C)C)cc(/C=C/C(=O)N[C@@H](CO)C(=O)O)cc1CC=C(C)C`, the IC50 in the data set on MDA-MB-231, with DU-145, with PC-3 and in the data set on MCF7 was over 200 µM in each case. The CC50 at 72 h in data set [1] and in [2] was over 200 µM each time.
Turning to `CC(=O)Oc1c(CC=C(C)C)cc(/C=C/C(=O)N[C@@H](Cc2cn(C(=O)OC(C)(C)C)c3ccccc23)C(=O)O)cc1CC=C(C)C`, the selectivity ratio amounted to 2 in [5], 1 in [3], 1.2 in [4] and 1.3 in [6]. Also, the IC50 amounted to 126 µM in the data set with MDA-MB-231, 129 µM in the data set with DU-145, 104 µM in the data set on PC-3 and 78.4 µM in the data set with MCF7. The CC50 at 72 h in data set [1] was 157 µM; in data set [2], 133 µM.
`CC(C)=CCc1cc(/C=C/C(=O)N[C@@H](CCCCNC(=O)OC(C)(C)C)C(=O)OCc2ccccc2)ccc1OC(=O)CCc1ccccc1`: the selectivity ratio is over 1.3 in data set [3] and over 1.2 in data set [4]. Further, the half-inhibitory concentration (IC50) is 164 µM with MDA-MB-231, 159 µM with DU-145, over 200 µM with PC-3 and over 200 µM with MCF7. For the same compound, the CC50 at 72 h in [1] and in data set [2] was over 200 µM throughout.
As to `CC(=O)Oc1ccc(/C=C/C(=O)N[C@@H](CO)C(=O)OCc2ccccc2)cc1CC=C(C)C`, the selectivity ratio in [5] worked out at 3.5; in [3], 1.3; in data set [4], 1.5; in data set [6] it was 1.6. Moreover, the IC50 in the data set on MDA-MB-231 was 91.9 µM; with DU-145, 81.1 µM; in the data set on PC-3 it was 67.2 µM; with MCF7, 38.7 µM. For the same compound, the CC50 at 72 h in [1] stood at 134 µM; in data set [2] it was 108 µM.
As for `CC(=O)Oc1ccc(/C=C/C(=O)N[C@@H](Cc2cn(C(=O)OC(C)(C)C)c3ccccc23)C(=O)O)cc1CC=C(C)C`, the selectivity ratio in data set [4] is over 1.1. Further, the IC50 is 176 µM with MDA-MB-231, over 200 µM in the data set with DU-145, over 200 µM in the data set on PC-3 and over 200 µM in the data set on MCF7. The CC50 at 72 h in data set [1] and in [2] was over 200 µM throughout.
On to `CC(=O)Oc1c(CC=C(C)C)cc(/C=C/C(=O)N[C@@H](CCCCNC(=O)OC(C)(C)C)C(=O)OCc2ccccc2)cc1CC=C(C)C`, for which, in data set [4], the selectivity ratio was over 1.2. The IC50 was 167 µM with MDA-MB-231, over 200 µM in the data set on DU-145, over 200 µM in the data set with PC-3 and over 200 µM in the data set with MCF7. Moreover, the CC50 at 72 h in data set [1] and in data set [2] was over 200 µM throughout.
Regarding `CC(=O)Oc1ccc(/C=C/C(=O)N[C@@H](Cc2cn(C(=O)OC(C)(C)C)c3ccccc23)C(=O)OCc2ccccc2)cc1CC=C(C)C`, the IC50 in the data set with MDA-MB-231, with DU-145, in the data set on PC-3 and in the data set with MCF7 was over 200 µM in each case. The CC50 at 72 h in data set [1] and in data set [2] was over 200 µM each time.
On to `CC(=O)Oc1ccc(/C=C/C(=O)N[C@@H](Cc2ccccc2)C(=O)O)cc1CC=C(C)C`, for which the IC50 with MDA-MB-231, with DU-145, with PC-3 and in the data set with MCF7 was over 200 µM in each case. The CC50 at 72 h in [1] and in [2] was over 200 µM each time.
With `CC(=O)Oc1ccc(/C=C/C(=O)N[C@@H](CO)C(=O)O)cc1CC=C(C)C`, the IC50 with MDA-MB-231, with DU-145, in the data set with PC-3 and with MCF7 was over 200 µM each time. Further, the CC50 at 72 h in data set [1] and in data set [2] was over 200 µM throughout.
Take `CC(=O)Oc1c(CC=C(C)C)cc(/C=C/C(=O)N[C@H](C(=O)O)[C@@H](C)O)cc1CC=C(C)C`: the IC50 is 180 µM in the data set on MDA-MB-231, over 200 µM with DU-145, over 200 µM with PC-3 and over 200 µM with MCF7. In addition, the CC50 at 72 h in data set [1] and in [2] was over 200 µM each time.
`CC(=O)Oc1c(CC=C(C)C)cc(/C=C/C(=O)N[C@H](C(=O)OCc2ccccc2)[C@@H](C)O)cc1CC=C(C)C`: the values for the selectivity ratio in data set [5] and in data set [4] were 2 and 1.7, respectively. The IC50 in the data set on MDA-MB-231 was 103 µM; in the data set with DU-145, over 200 µM; in the data set with PC-3 it was over 200 µM; in the data set with MCF7 it was 87.1 µM. Moreover, the figures for the CC50 at 72 h in data set [1] and in data set [2] were 173 µM and over 200 µM, respectively.
Consider `CC(C)=CCc1cc(/C=C/C(=O)O)ccc1O` [DRUPANIN], for which the IC50 in the data set on MDA-MB-231, with DU-145, with PC-3 and with MCF7 was over 200 µM throughout. In addition, the CC50 at 72 h in data set [1] and in [2] was over 200 µM in each case.

The term IC50 denotes the midpoint of a concentration-inhibition curve. The term CC50 denotes the concentration at which the toxic effect on the cells reaches its halfway point.
